Data on five compounds can be found in ChEMBL document CHEMBL4665697, “Synthesis of the Major Mammalian Metabolites of THCV” (J Nat Prod, 2020).

A value given as a limit tells only on which side of the number the result lay.

For one assay, the target named is Cannabinoid receptor 1 (Homo sapiens, UniProt P21554). The assay can be described thus: Displacement of [3H]-CP-55,940 from recombinant human CB1R expressed in HEK293 cell membranes after 90 mins. Set-up: species or system Cell membrane.
The target of the next assay is Cannabinoid receptor 2 (Homo sapiens, UniProt P34972). The assay can be described thus: Displacement of [3H]-CP-55,940 from recombinant human CB2R expressed in HEK293 cell membranes after 90 mins. Set-up: species or system Cell membrane.
Cannabinoid receptor 2, sequence (P34972 whole entry): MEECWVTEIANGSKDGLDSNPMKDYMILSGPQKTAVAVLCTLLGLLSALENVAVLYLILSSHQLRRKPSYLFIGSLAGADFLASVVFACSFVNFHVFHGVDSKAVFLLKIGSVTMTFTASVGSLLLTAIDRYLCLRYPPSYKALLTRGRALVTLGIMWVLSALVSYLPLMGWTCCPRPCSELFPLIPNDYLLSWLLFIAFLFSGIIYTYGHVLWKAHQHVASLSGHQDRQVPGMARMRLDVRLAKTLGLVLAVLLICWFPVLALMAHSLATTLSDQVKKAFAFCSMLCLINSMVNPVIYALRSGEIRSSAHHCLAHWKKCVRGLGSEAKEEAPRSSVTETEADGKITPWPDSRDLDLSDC

Cannabinoid receptor 1, sequence (P21554 whole entry): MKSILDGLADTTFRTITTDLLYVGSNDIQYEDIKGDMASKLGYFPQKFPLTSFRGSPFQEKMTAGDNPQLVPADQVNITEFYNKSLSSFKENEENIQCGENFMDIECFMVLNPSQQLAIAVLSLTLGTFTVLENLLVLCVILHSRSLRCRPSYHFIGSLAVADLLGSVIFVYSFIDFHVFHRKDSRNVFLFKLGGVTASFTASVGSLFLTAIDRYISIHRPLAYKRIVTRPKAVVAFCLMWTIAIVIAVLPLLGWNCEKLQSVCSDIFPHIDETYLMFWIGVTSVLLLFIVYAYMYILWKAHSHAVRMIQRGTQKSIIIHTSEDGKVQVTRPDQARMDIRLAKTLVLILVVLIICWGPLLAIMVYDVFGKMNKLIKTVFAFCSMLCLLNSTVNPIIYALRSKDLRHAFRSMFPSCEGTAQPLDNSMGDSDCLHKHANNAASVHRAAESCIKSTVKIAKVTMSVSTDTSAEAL

The term IC50 denotes the concentration that gives 50% inhibition. Broadly, the Ki is the dissociation constant of the complex between target and ligand, obtained from inhibition or displacement. Take `CCCc1cc(O)c2c(c1)OC(C)(C)[C@@H]1CCC(C)=C[C@@H]21` [TETRAHYDROCANNABIVARIN]: the IC50 at Cannabinoid receptor 1 is 0.0131 µM; on Cannabinoid receptor 2, 0.0176 µM. The Ki on Cannabinoid receptor 1 is 0.0015 µM; at Cannabinoid receptor 2, 0.0028 µM.

Take `CCCc1cc(O)c2c(c1)OC(C)(C)[C@@H]1CCC(CO)=C[C@@H]21`: at Cannabinoid receptor 1, the IC50 came out at 0.0227 µM and the Ki was determined as 0.0025 µM. Further, on Cannabinoid receptor 2, the IC50 is 0.0298 µM and the Ki is 0.0047 µM.

`CCCc1cc(O)c2c(c1)OC(C)(C)[C@@H]1C[C@@H](O)C(C)=C[C@@H]21`: the half-inhibitory concentration (IC50) at Cannabinoid receptor 1 and on Cannabinoid receptor 2 was greater than 10 µM throughout. Besides, the Ki on Cannabinoid receptor 1 and on Cannabinoid receptor 2 was greater than 10 µM each time.

On to `CCCc1cc(O)c2c(c1)OC(C)(C)[C@@H]1C[C@H](O)C(C)=C[C@@H]21`, for which the IC50 on Cannabinoid receptor 1 was 0.23 µM; on Cannabinoid receptor 2, 0.808 µM. For the same compound, the Ki is 0.0256 µM on Cannabinoid receptor 1 and 0.128 µM at Cannabinoid receptor 2.

Take `CCCc1cc(O)c2c(c1)OC(C)(C)[C@@H]1CCC(C(=O)O)=C[C@@H]21`: the IC50 at Cannabinoid receptor 1 was 1.68 µM; on Cannabinoid receptor 2, 3.72 µM. Also, the Ki at Cannabinoid receptor 1 came to 0.187 µM; on Cannabinoid receptor 2, 0.59 µM.
